Reference: US20050221987A1, “Use of certain phospholipids to deliver hormonal effects to plants” (priority 2004, published 2005)
Values joined by “and” are separate entries in the source; they are usually repeats but may differ in a detail not shown here. Equal entries are not always repeated.

How the values were obtained:
Bolivian Rainbow Peppers = test: Color impact on hot pepper (greenhouse); type: in vivo
Procedure: The color impact of NALPE-2 on hot pepper. Potted ornamental peppers (var. Bolivian Rainbow Peppers) in laboratory greenhouses located in Middleton, Wis. were treated with NALPE-2 (50 mg/L). […] 40-50 fruits were tagged and labeled. The pepper color stage was noted prior to application and two plants were used. Ambient conditions in the greenhouse at the time of application were about 80° F. and 70% relative humidity. Drying time was approximately 0.5 hr. After 14 days the peppers were harvested and color group sorting was performed.

radish cotyledons [1] = test: Radish cotyledon bioassay (kinetin-induced expansion growth and chlorophyll content); type: in vivo, Raphanus sativus L. cv. Cherry-Belle; conditions: kinetin 0.2 mg/l, 72 hours; for Change in fresh weight: n = 9
radish cotyledons [2] = test: as above; type: in vivo, Raphanus sativus L. cv. Cherry-Belle; conditions: for Type of hormone-like activity: radish cotyledon bioassay
Procedure: Radish cotyledon bioassay. The radish cotyledon bioassay was essentially as described by Letham D S (1971) Physiologia Plantarum 25:391-396, which is herein incorporated by reference in its entirety. Seeds of Raphanus sativus L. cv. Cherry-Belle were germinated in darkness at 25° C. for 36 hours in Petri dishes containing filter paper wetted with distilled water. The smaller of the two cotyledons was excised, the fresh weight determined, and 10 cotyledons placed adaxial side down on filter paper in Petri dishes containing potassium phosphate buffer (2 mM, pH 6.0) with kinetin (0.2 mg/L, added to simulate natural growing conditions) and the compounds to be tested at 20 mg/L. Cotyledons were then incubated under continuous illumination up to 72 hours at 25° C. and the increase in fresh weight determined. Chlorophyll content was determined after extraction of tissue into 80% ethanol (containing butylated hydroxytoluene, 10 mg/L) and quantified spectrophotometrically using the equations Chl a=(13.95A663)−(6.88A647) and Chl b=(24.96A652)−(7.32A663) as described by Lichtenthal H K (1987) Methods in Enzymology 148:350-382, which is herein incorporated by reference in its entirety.

[3] = tested on: Hydroponic tomatoes (var. Trust); test: Color impact on tomato (greenhouse spray); type: in vivo
Procedure: The color impact of NALPE-2 on tomato. Hydroponic tomatoes (var. Trust) in a commercial greenhouse located in Arena, Wis. were treated with NALPE-2 (50 mg/L) using a hand pump spray bottle. Five tomato clusters each with 3-5 fruit in the early ripening stages (breaker) were used. The clusters were sprayed such that little overspray left the immediate area as to not contaminate other vines. Ambient conditions in the greenhouse at the time of application were about 75° F. and 70% relative humidity, full sun. Drying time was approximately 0.5 hr. Fruit were harvested after 7 days and transported to the laboratory for visual color comparison.

radish hypocotyls = test: Radish hypocotyl bioassay for anthocyanins; type: in vivo, Raphanus sativus L. cv. Cherry-Belle
Procedure: Radish hypocotyl bioassay for anthocyanins. An anthocyanin bioassay was developed using intact germinated seeds of radish (Raphanus sativus L. cv. Cherry-Belle). Seeds of radish were germinated in darkness at 25° C. for 40 hours in Petri dishes containing filter paper wetted with distilled water. Whole seedlings were transferred to Petri dishes containing the test solutions in potassium phosphate buffer (2 mM, pH 6.0 containing 0.2 mg/L kinetin to simulate natural growing conditions). The seedlings were incubated under bright light for 28 h prior to extraction of hypocotyl tissue and spectrophotometric quantification of anthocyanins. Anthocyanin content was determined spectrophotometrically after tissue extraction into 99 parts ethanol and 1 part concentrated HCl. The absorbance of the acidic ethanol fraction was measured at 510 nm and the final anthocyanin content calculated using an extinction coefficient of 31.76 mmol cm^−1 for raphanisuns (Ishikura N. and Hayashi K. Chromatographic separation and characterization of the component anthocyanins in radish root. Botanical Magazine Tokyo 76:6-13, 1963, which is herein incorporated by reference in its entirety).

[4] = NALPE-2 50 mg/L applied 14 days prior to harvest, Bolivian Rainbow Peppers
[5] = NALPE-2 50 mg/L applied 7 days prior to harvest, tomatoes
[6] = NAPE-2 20 mg/L, kinetin 0.2 mg/l, 72 hours

In the case of “N-acetyl lysophosphatidylethanolamine [NALPE-2]”, the “Color Stage Blue” value (Bolivian Rainbow Peppers; [4]) was 22%, the “Color Stage Orange” value (Bolivian Rainbow Peppers; [4]) was 20% and the “Color Stage Purple” value (Bolivian Rainbow Peppers; [4]) was 19%. The “Color Stage Red” value (Bolivian Rainbow Peppers; [4]) was 32%, the “Color Stage Yellow” value (Bolivian Rainbow Peppers; [4]) was 6% and the “Effect on color development in hot peppers” value (Bolivian Rainbow Peppers; Table 5) was “accelerated color development”. The “Change in fresh weight, % of control” value (radish cotyledons [1]; NALPE-2 0.2 mg/l) was 92 % of control, the “Change in fresh weight” value (radish cotyledons [1]; NALPE-2 0.2 mg/l) was 13.68 ± 4.79 mg and the “Change in fresh weight, % of control” value (radish cotyledons [1]; NALPE-2 200 mg/l) was 58 % of control. The “Change in fresh weight” value (radish cotyledons [1]; NALPE-2 200 mg/l) was 8.64 ± 5.46 mg, the “Change in fresh weight, % of control” value (radish cotyledons [2]; NALPE-2 20 mg/l, kinetin 0.2 mg/l, 72 hours) was 66 % of control and the “Change in fresh weight” value (radish cotyledons [2]; NALPE-2 20 mg/l, kinetin 0.2 mg/l, 72 hours, n = 9) was 9.88 ± 4.93 mg. For the same substance, the “Effect on expansion growth of radish cotyledons” value (radish cotyledons [2]; Table 2, dependent upon concentration) was “inhibitory activity”, the “Type of hormone-like activity” value (radish cotyledons [2]) was “ethylene-like activity” and the “Color Stage Light Red” value [3, 5] was 17%. For the same substance, the “Color Stage Others (breaker, turning, and pink stage)” value [3, 5] was 16%, the “Color Stage Red” value [3, 5] was 67% and the “Effect on color development in tomatoes” value ([3]; text summary of Table 4) was “accelerated color development”. For the same substance, the Anthocyanin (radish hypocotyls; NALPE-2 15 mg/l, kinetin 0.2 mg/l, 25° C., 28 hours, n = 4) was 2.637 ± 0.005 μg/hypocotyl, the “Anthocyanin, % of control” value (radish hypocotyls; NALPE-2 15 mg/l, kinetin 0.2 mg/l, 28 hours) was 125 % of control and the “Effect on anthocyanin pigment in radish hypocotyls” value (radish hypocotyls; summary of Table 3) was “enhanced the amount of anthocyanin pigment”.

In the case of “N-acetylphosphatidylethanolamine [NAPE-2]”, the “Effect on total amount of chlorophyll during radish cotyledon expansion” value (radish cotyledons [2]) was “did not change the total amount of chlorophyll”, the “Change in fresh weight” value (radish cotyledons [2]; NAPE-2 20 mg/L, kinetin 0.2 mg/l, 2 mM PB pH 6.0, 25° C., 72 hours, n = 3) was 18.90 ± 1.74 mg and 21.37 ± 1.09 mg and 22.52 ± 3.42 mg and the “Change in fresh weight, % of control” value (radish cotyledons [2]; [6]) was 110 % of control and 108 % of control. For the same substance, the Chlorophyll a/b (radish cotyledons [2]; [6]) was 1.82, the “Type of hormone-like activity” value (radish cotyledons [2]) was “cytokinin-like activity” and the “Increase of cotyledon fresh weight” value (radish cotyledons [2]; summary of Table 1) was “about 10%”.
